Source: patent publication US20230014907A1, “INHIBITORS OF APOL1 AND METHODS OF USING SAME” (Vertex Pharmaceuticals Incorporated, priority 2020, published 2023)

Target: T1, G1 APOL1 (Homo sapiens, UniProt O14791, I384M/S342G)
T1 construct: expressed in transfected cells
T1 sequence (O14791 28-398 S342G/I384M): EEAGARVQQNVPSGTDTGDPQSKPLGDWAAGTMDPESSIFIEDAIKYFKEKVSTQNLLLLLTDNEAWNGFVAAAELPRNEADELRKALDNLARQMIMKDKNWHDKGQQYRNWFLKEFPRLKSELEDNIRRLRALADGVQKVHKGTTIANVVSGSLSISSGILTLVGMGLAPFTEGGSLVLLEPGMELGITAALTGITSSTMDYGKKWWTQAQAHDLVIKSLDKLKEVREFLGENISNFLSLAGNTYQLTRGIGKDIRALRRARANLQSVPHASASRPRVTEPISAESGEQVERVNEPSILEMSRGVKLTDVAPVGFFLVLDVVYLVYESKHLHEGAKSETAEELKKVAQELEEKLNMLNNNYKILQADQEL
Assay: Acute APOL1 Thallium Assay with Inducible Stable Clones of HEK 293 Cells
Format: cell-based
Conditions: HEK 293 inducible stable clones, G1 APOL1; read-out: Thallium Assay (IC50)
Procedure, shortened: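 Pore activity was read as the fluorescence increase from Tl+ entering cells loaded with an AM-ester thallium indicator dye. The cells were tetracycline-inducible HEK293 T-Rex expressing G1 APOL1 (clone DC3.25), induced when plated at 26000 per well and incubated at 37° C.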

Work on C[C@H](NC(=O)NCCc1c(-c2ccc(F)cc2)[nH]c2c(F)cc(F)cc12)C(C)(C)O [Compound 268] yielded an IC50 of over 1000 nM.
Work on NC(=O)C1(NC(=O)OCCc2c(-c3ccc(F)cc3)[nH]c3c(F)cc(F)cc23)CC1 [Compound 473] yielded an IC50 of 250 to 1000 nM.
CC(C)(O)C(=O)NCCc1c(-c2ccc(F)cc2)[nH]c2c(F)cc(F)cc12 [Compound 355] showed an IC50 of over 1000 nM.
O=C(NCC1(O)CCS(=O)(=O)C1)OCCc1c(-c2ccc(F)cc2)[nH]c2c(F)cc(F)cc12 (stereo not drawn) [Compound 498] gave an IC50 of over 1000 nM.
Cc1cc(F)c2[nH]c(-c3ccc(F)cc3)c(CCC(=O)N[C@@H](CO)C(F)(F)F)c2c1 [Compound 214] showed an IC50 of under 250 nM.
With O=C(NCCc1c(-c2ccc(F)cc2)[nH]c2c(F)cc(F)cc12)N[C@@H]1CC[C@@H](O)C1 [Compound 273] the IC50 was over 1000 nM.
CC(CCO)NC(=O)OCCc1c(-c2ccc(F)cc2)[nH]c2c(F)cc(F)cc12 (racemic) [Compound 457] showed an IC50 of 250 to 1000 nM.
For N#CCC(=O)NCCc1c(-c2ccc(F)cc2)[nH]c2c(F)cc(F)cc12 [Compound 416], the IC50 was over 1000 nM.
With O=C(Cc1cnccn1)NCCc1c(-c2ccc(F)cc2)[nH]c2c(F)cc(F)cc12 [Compound 381] the IC50 was over 1000 nM.
CN(C)S(=O)(=O)NCCc1c(-c2ccc(F)cc2)[nH]c2c(F)cc(F)cc12 [Compound 425] showed an IC50 of over 1000 nM.
O=C(NCCc1c(-c2ccc(F)cc2)[nH]c2c(F)cc(F)cc12)NCC1(CO)CC1 [Compound 276] showed an IC50 of over 1000 nM.
Work on COC1CC1NC(=O)OCCc1c(-c2ccc(F)cc2)[nH]c2c(F)cc(F)cc12 (stereo not drawn) [Compound 479] yielded an IC50 of over 1000 nM.
O=C(NCCc1c(-c2ccc(F)cc2)[nH]c2c(F)cc(F)cc12)C1CC1(F)F (stereo not drawn) [Compound 404] gave an IC50 of 250 to 1000 nM.
O=C(NCCc1c(-c2ccc(F)cc2)[nH]c2c(F)cc(F)cc12)NC1(CCO)CC1 [Compound 274] was tested, and the IC50 was 250 to 1000 nM.
Work on O=C(NC(CO)C1CC1)OCCc1c(-c2ccc(F)cc2)[nH]c2c(F)cc(F)cc12 (stereo not drawn) [Compound 451] yielded an IC50 of under 250 nM.
In the case of CC(C)(O)CCNC(=O)OCCc1c(-c2ccc(F)cc2)[nH]c2c(F)cc(F)cc12 [Compound 458], the IC50 is reported as 250 to 1000 nM.
In the case of Cn1ccnc1C(=O)NCCc1c(-c2ccc(F)cc2)[nH]c2c(F)cc(F)cc12 [Compound 388], the IC50 is reported as 250 to 1000 nM.
O=C(NCCc1c(-c2ccc(F)cc2)[nH]c2c(F)cc(F)cc12)C1CC(O)C1 (stereo not drawn) [Compound 348] was tested, and the IC50 was over 1000 nM.
Work on O=C(Cc1nccs1)NCCc1c(-c2ccc(F)cc2)[nH]c2c(F)cc(F)cc12 [Compound 376] yielded an IC50 of over 1000 nM.
CC(C)C(CO)NC(=O)OCCc1c(-c2ccc(F)cc2)[nH]c2c(F)cc(F)cc12 (stereo not drawn) [Compound 467] gave an IC50 of 250 to 1000 nM.
O=C(NCCc1c(-c2ccc(F)cc2)[nH]c2c(F)cc(F)cc12)C1(O)COC1 [Compound 342] was tested, and the IC50 was 250 to 1000 nM.
With CC(CO)(CO)NC(=O)CCc1c(-c2ccc(F)cc2)[nH]c2c(F)cc(Cl)cc12 [Compound 197] the IC50 was 250 to 1000 nM.
C[C@@H]1NC(=O)N(CCc2c(-c3ccc(F)cc3)[nH]c3c(F)cc(F)cc23)C1=O [Compound 257, (5S)-3-[2-[5,7-difluoro-2-(4-fluorophenyl)-1H-indol-3-yl]ethyl]-5-methyl-imidazolidine-2,4-dione] was tested, and the IC50 was over 1000 nM.
With O=C1CC[C@@H](C(=O)NCCc2c(-c3ccc(F)cc3)[nH]c3c(F)cc(F)cc23)N1 [Compound 338] the IC50 was over 1000 nM.
Compound C[C@@H](O)[C@@H](CO)NC(=O)OCCc1c(-c2ccc(F)cc2)[nH]c2c(F)cc(F)cc12 [Compound 454] has an IC50 of 250 to 1000 nM.
C[C@@H](CO)NC(=O)CCc1c(-c2ccc(F)cc2)[nH]c2c(F)cc(Cl)cc12 [Compound 203] showed an IC50 of over 1000 nM.
Work on O=C(NCCc1c(-c2ccc(F)cc2)[nH]c2c(F)cc(F)cc12)c1cccnc1 [Compound 401] yielded an IC50 of over 1000 nM.
For O=C(NC1(CO)CC1)OCCc1c(-c2ccc(F)cc2)[nH]c2c(F)cc(F)cc12 [Compound 438], the IC50 was under 250 nM.
For O=C1CC(C(=O)NCCc2c(-c3ccc(F)cc3)[nH]c3c(F)cc(F)cc23)CN1 (stereo not drawn) [Compound 340], the IC50 was over 1000 nM.
Compound C[C@H](CO)NC(=O)CCc1c(-c2ccc(F)cc2)[nH]c2c(F)cc(Cl)cc12 [Compound 208] has an IC50 of under 250 nM.
CC(O)CCNC(=O)NCCc1c(-c2ccc(F)cc2)[nH]c2c(F)cc(F)cc12 (stereo not drawn) [Compound 278] was tested, and the IC50 was over 1000 nM.
O=C(CCc1c(-c2ccc(F)cc2)[nH]c2c(F)cc(Cl)cc12)NCCCO [Compound 209] was tested, and the IC50 was over 1000 nM.
Work on O=C(NC1CC(O)C1)OCCc1c(-c2ccc(F)cc2)[nH]c2c(F)cc(F)cc12 (stereo not drawn) [Compound 466] yielded an IC50 of 250 to 1000 nM.
Compound C[C@]1(O)C[C@@H](NC(=O)OCCc2c(-c3ccc(F)cc3)[nH]c3c(F)cc(F)cc23)C1 [Compound 489] has an IC50 of over 1000 nM.
For O=C(CCc1c(-c2ccc(F)cc2)[nH]c2c(F)cc(Cl)cc12)N[C@@H](CO)C(F)(F)F [Compound 207], the IC50 was under 250 nM.
O=C(CCc1c(-c2ccc(F)cc2)[nH]c2c(F)cc(F)cc12)NC1=CCNC1=O [Compound 94, 3-[5,7-difluoro-2-(4-fluorophenyl)-1H-indol-3-yl]-N-(5-oxo-1,2-dihydropyrrol-4-yl)propanamide] gave an IC50 of over 1000 nM.
With CC(C)(C)OC(=O)N[C@H](CO)C(=O)NCCc1c(-c2ccc(F)cc2)[nH]c2c(F)cc(F)cc12 [Compound 305, tert-butyl N-[(1R)-2-[2-[5,7-difluoro-2-(4-fluorophenyl)-1H-indol-3-yl]ethylamino]-1-(hydroxymethyl)-2-oxo-ethyl]carbamate] the IC50 was over 1000 nM.
With O=C(NCCc1c(-c2ccc(F)cc2)[nH]c2c(F)cc(F)cc12)[C@H]1CC[C@H](O)CC1 [Compound 325] the IC50 was over 1000 nM.
O=C(NCCc1c(-c2ccc(F)cc2)[nH]c2c(F)cc(F)cc12)N[C@@H](CO)C(F)(F)F [Compound 261] showed an IC50 of 250 to 1000 nM.
With NC(=O)CNC(=O)CCc1c(-c2ccc(F)cc2)[nH]c2c(F)cc(Cl)cc12 [Compound 201] the IC50 was over 1000 nM.
O=C(NCc1cnco1)OCCc1c(-c2ccc(F)cc2)[nH]c2c(F)cc(F)cc12 [Compound 477] was tested, and the IC50 was over 1000 nM.
O=C1CCC(C(=O)NCCc2c(-c3ccc(F)cc3)[nH]c3c(F)cc(F)cc23)CN1 (stereo not drawn) [Compound 332] showed an IC50 of over 1000 nM.
O=C(NCCc1c(-c2ccc(F)cc2)[nH]c2c(F)cc(F)cc12)C1CCCCC1O (stereo not drawn) [Compound 326] showed an IC50 of 250 to 1000 nM.
Cc1cc(F)c2[nH]c(-c3ccc(F)cc3)c(CCC(=O)NC(CO)CF)c2c1 (stereo not drawn) [Compound 221] showed an IC50 of over 1000 nM.
CCOCCNC(=O)OCCc1c(-c2ccc(F)cc2)[nH]c2c(F)cc(F)cc12 [Compound 455] showed an IC50 of 250 to 1000 nM.
With O=C(CCc1c(-c2ccc(F)cc2)[nH]c2c(F)cc(Cl)cc12)NCCO [Compound 199] the IC50 was 250 to 1000 nM.
O=C(CCCc1c(-c2ccc(F)cc2)[nH]c2c(F)cc(F)cc12)N[C@H]1CCNC1=O [Compound 249] was tested, and the IC50 was over 1000 nM.
C[C@H](CO)NC(=O)CCCc1c(-c2ccc(F)cc2)[nH]c2c(F)cc(F)cc12 [Compound 241] gave an IC50 of 250 to 1000 nM.
Compound COc1ccc2[nH]c(-c3ccc(F)cc3)c(CCNC(=O)OC(C)(C)C)c2c1 [Compound 430, tert-butyl N-[2-[2-(4-fluorophenyl)-5-methoxy-1H-indol-3-yl]ethyl]carbamate] has an IC50 of over 1000 nM.
Cn1cc(CNC(=O)CCCc2c(-c3ccc(F)cc3)[nH]c3c(F)cc(F)cc23)cn1 [Compound 254] was tested, and the IC50 was over 1000 nM.
Work on O=C(NCCc1c(-c2ccc(F)cc2)[nH]c2c(F)cc(F)cc12)C1CC(O)(C(F)(F)F)C1 (stereo not drawn) [Compound 314] yielded an IC50 of over 1000 nM.
CN1CC(NC(=O)OCCc2c(-c3ccc(F)cc3)[nH]c3c(F)cc(F)cc23)CC1=O (stereo not drawn) [Compound 494] was tested, and the IC50 was over 1000 nM.
C[C@H](O)CNC(=O)OCCc1c(-c2ccc(F)cc2)[nH]c2c(F)cc(F)cc12 [Compound 462] was tested, and the IC50 was 250 to 1000 nM.
Compound Cn1cc(CNC(=O)CCCc2c(-c3ccc(F)cc3)[nH]c3c(F)cc(F)cc23)nn1 [Compound 251] has an IC50 of over 1000 nM.
